Measurements reported in patent publication US9018438B2, “Screening method for anticancer drugs” (Kyoto University, priority 2010, dated 2015).
Counter-ions that a name gives are not always drawn. Like-named read-outs stand apart in the source and are kept apart here.

Assays:
Reck gene promoter [1] = assay: SEAP assay in YM3 cells (Reck gene promoter-reporter system); type: cell-based, mouse
Description: A 4.1-kb upstream region of a mouse Reck gene (Gene ID: 53614, Chromosome 4—NC—000070.5 43884251-43888453) was inserted into a pSEAP2-Basic vector (Clontech) to give a pSEAP-RP4.1 plasmid. […] Biochem Biophys Res Commun 1999; 264: 668-675.). […] TF323-C3 cells can be distributed from one of the inventors Makoto Noda.
YM3 cells were seeded onto 96-well plates at 1×10^4 cells in 100 μl per well and incubation was performed for 5 hours to allow the cells to settle. A compound solution (500 μM, 1 μl) was added to the medium. The employed test compounds were those in the chemical library Prestwick Chemical Library (Prestwick Chemical, Illkirch, France), which is composed of 880 structurally diverse known bioactive compounds, dissolved in nano-pure grade dimethyl sulfoxide (DMSO; Wako). […] A vehicle (DMSO, 1 μl) alone as a negative control and hypothemycin (HPM, 1 mg/ml) as a positive control were added to two wells per plate. Each sample was tested on two different plates (duplicate samples).
After incubation for 48 hours, a portion (10 μl) of the culture supernatant was sampled, incubated at 65° C. (heat treatment) for 30 minutes, and then subjected to the SEAP assay using Great EscAPe™ SEAP Chemiluminescence Detection Kit (Takara Bio). The remaining medium and the cells were subjected to the cell-counting assay using SF reagent. That is, SF reagent (Nacalai) (10 μl per well) was added to the medium, the plates were incubated for 3 hours in a CO2 incubator, and the absorbance at 450 nm (A450) was measured to obtain relative cell numbers. For the SEAP activity data, “SEAP measured value/A450 value” was defined as “SEAP activity per cell”, and the value obtained by dividing “SEAP activity per cell” of each compound by “SEAP activity per cell” of the negative control was defined as “relative SEAP activity”. The mean “relative SEAP activity” of the duplicate samples and the standard error thereof were determined. For the cell number data, the value obtained by dividing the SF measured value of each compound by the SF measured value of the negative control was defined as “relative cell number”, and the mean value of the duplicate samples and the standard error thereof were determined. Samples with a large standard error were tested again. In the experiment, duplicate samples were prepared each in a regular liquid medium and in a liquid medium containing Dox (2 μg/ml), and four mean values (the relative cell number and the relative SEAP activity in the Ras-ON state and the relative cell number and the relative SEAP activity in the Ras-OFF state) were obtained (see FIG. 3).

Reck gene promoter [2] = assay: as above; type: cell-based, mouse; conditions: determined by dose-response assays (0.0617, 0.185, 0.556, 1.67, 5.00 μM) using YM3 cells
RM72 cells = type: in vivo; conditions: mouse, in vivo
Description: RM72 cells (3×10^6 cells) suspended in 0.1 ml of PBS were subcutaneously injected into the right posterior flank of Balb/c nude mice (6 weeks old, male, Charles River). […]. After 14-day treatment, the mice were anesthetized and their bioluminescence was recorded by the method described below. After the whole-body recording of the bioluminescence, the lung was resected, washed with PBS (−), and subjected to bioluminescence recording. The tumor size (length×width×height) was measured once a week. Statistical significance was assessed by Student's t-test.
Mice under anesthesia were intraperitoneally injected with 75 mg/kg of d-luciferin dissolved in PBS (−). Bioluminescence images were acquired with IVIS ImagingSystem (Xenogen) at 5 minutes after the injection (Wang S, El-Deiry W S. Requirement of p53 targets in chemosensitization of colonic carcinoma to death ligand therapy. Proc Natl Acad Sci USA 2003; 100: 15095-15100; Minn A J, Kang Y, Serganova I, Gupta G P, Giri D D, Doubrovin M, Ponomarev V, Gerald W L, Blasberg R, Massague J. Distinct organ-specific metastatic potential of individual breast cancer cells and primary tumors. J Clin Invest 2005; 115: 44-55). The photons emitted from the whole bodies or the isolated organs were collected for a period of 60 seconds and integrated. The images were analyzed using Living Image software (Xenogen).
The anti-tumorigenic and anti-metastatic activities of Pyt, Hr, Gra and Lyc were investigated with the same protocol as in Example 9. The experiment was conducted in two batches: Experiment 1 for three groups of a Pyt group, a Hr group and a vehicle group and Experiment 2 for three groups of a Gra group, a Lyc group and a vehicle group. The doses of the test compounds were set at two different quantities considered to be appropriate based on literature (see Tables 3 and 4).

[3] = in the presence of Dox (HRAS12V-off)
[4] = relative SEAP activity at optimal conc., YM3 cells, regular medium (Ras-ON)

Compound	Activity in Dox (Reck gene promoter [1]; [3])	Induction (fold) (Reck gene promoter [1]; [4])	also measured
C[C@@H]1C[C@@H]([C@H](O)CC2CC(=O)NC(=O)C2)C(=O)[C@@H](C)C1 [Cycloheximide]	± (between 1.9 and 1.5-fold)	2.29 fold	
Thimerosal			Activity in Dox (Reck gene promoter [1]): + (key: +: more than 1.9-fold; ±: between 1.9 and 1.5-fold; −: less than 1.5-fold); Induction (fold) (Reck gene promoter [1]): 9.33 fold; Optimal conc. (Reck gene promoter [1]): 5.00 µM
CN(C)[C@@H]1C(O)=C(C(N)=O)C(=O)[C@@]2(O)C(O)=C3C(=O)c4c(O)ccc(Cl)c4[C@@H](O)[C@H]3C[C@@H]12 [Demeclocycline hydrochloride]	− (less than 1.5-fold)	2.57 fold	
CN(C)CCCN1c2ccccc2Sc2ccc(C(F)(F)F)cc21 [Triflupromazine hydrochloride]			Activity in Dox (Reck gene promoter [1]): − (key: +: more than 1.9-fold; ±: between 1.9 and 1.5-fold; −: less than 1.5-fold)
COc1cc([C@@H]2c3cc4c(cc3[C@@H](O[C@@H]3O[C@@H]5CO[C@@H](C)O[C@H]5[C@H](O)[C@H]3O)[C@H]3COC(=O)[C@H]23)OCO4)cc(OC)c1O [Etoposide]	+ (more than 1.9-fold)	1.99 fold	
Nc1nc(N)c2nc(-c3ccccc3)c(N)nc2n1 [Triamterene]	− (less than 1.5-fold)	2.25 fold	
CN(C)c1ccc(O)c2c1C[C@H]1C[C@H]3[C@H](N(C)C)C(O)=C(C(N)=O)C(=O)[C@@]3(O)C(O)=C1C2=O [Minocycline hydrochloride]	− (less than 1.5-fold)	2.54 fold	
CN(Cc1cnc2nc(N)nc(N)c2n1)c1ccc(C(=O)N[C@@H](CCC(=O)O)C(=O)O)cc1 [Methotrexate]	± (between 1.9 and 1.5-fold)	3.42 fold	
Trimeprazine tartrate	− (less than 1.5-fold)	2.30 fold	Optimal conc. (Reck gene promoter [2]): 5.00 µM
CCN(CC)CCNc1ccc(CO)c2sc3ccccc3c(=O)c12 [Hycanthone]	+ (more than 1.9-fold)	2.02 fold	
CCCSc1ccc2nc(NC(=O)OC)[nH]c2c1 [Albendazole]			Activity in Dox (Reck gene promoter [1]): ± (key: +: more than 1.9-fold; ±: between 1.9 and 1.5-fold; −: less than 1.5-fold); Induction (fold) (Reck gene promoter [1]): 2.89 fold
CC[C@H]1CN2CCc3cc(OC)c(OC)cc3[C@@H]2C[C@@H]1C[C@H]1NCCc2cc(O)c(OC)cc21.Cl.Cl.O.O.O.O.O.O.O [Cephaeline dihydrochloride heptahydrate]	+ (more than 1.9-fold)	5.61 fold	Optimal conc. (Reck gene promoter [1]): 5.00 µM
CC[C@@]1(O)C(=O)OCc2c1cc1n(c2=O)Cc2cc3ccccc3nc2-1 [Camptothecine (S, +)]	+ (more than 1.9-fold)	7.71 fold	Optimal conc. (Reck gene promoter [1]): 5.00 µM
CCc1nc(N)nc(N)c1-c1ccc(Cl)cc1 [Pyrimethamine]	± (between 1.9 and 1.5-fold)	2.33 fold	
COc1cc(O)c2c(c1)[C@H]1O[C@@H]1C[C@H](O)[C@H](O)C(=O)/C=C\C[C@H](C)OC2=O [HPM, hypothemycin]			SEAP up-regulation in YM3 cells (Reck gene promoter [1]; 1 μg/ml): up-regulated; up-regulation of SEAP activity (Reck gene promoter [1]; positive control, typical): about twofold
CC(=O)O[C@H]1C(=O)[C@@]2(C)[C@H]([C@H](OC(=O)c3ccccc3)[C@]3(O)C[C@H](OC(=O)[C@H](O)[C@@H](NC(=O)c4ccccc4)c4ccccc4)C(C)=C1C3(C)C)[C@]1(OC(C)=O)CO[C@@H]1C[C@@H]2O [Paclitaxel]	± (between 1.9 and 1.5-fold)	3.32 fold	
COc1cc(/C=C/C(=O)N2CCC=CC2=O)cc(OC)c1OC [Piperlongumine]	− (less than 1.5-fold)	2.06 fold	Optimal conc. (Reck gene promoter [1]): 5.00 µM
COc1cc([C@@H]2c3cc4c(cc3[C@H](O)[C@H]3COC(=O)[C@H]23)OCO4)cc(OC)c1OC [Podophyllotoxin]	± (between 1.9 and 1.5-fold)	2.48 fold	
[O-][n+]1ccccc1S [Pyrithione sodium salt]			Activity in Dox (Reck gene promoter [1]): + (key: +: more than 1.9-fold; ±: between 1.9 and 1.5-fold; −: less than 1.5-fold); Induction (fold) (Reck gene promoter [1]): 17.5 fold; Lung metastasis Mean (RM72 cells; 15 mg/kg/day): 11.6; Tumor Mean (RM72 cells; 15 mg/kg/day): 52.2; Lung metastasis Mean (RM72 cells; 50 mg/kg/day): 84.2; Tumor Mean (RM72 cells; 50 mg/kg/day): 74.4
C1CCC(C(CC2CCCCN2)C2CCCCC2)CC1 (stereo not drawn) [Perhexiline maleate]	+ (more than 1.9-fold)	2.28 fold	
C[C@H]1c2cccc(O)c2C(=O)C2=C(O)[C@]3(O)C(=O)C(C(N)=O)=C(O)[C@@H](N(C)C)[C@@H]3[C@@H](O)[C@@H]21 [Doxycycline hydrochloride]	− (less than 1.5-fold)	1.96 fold	
O=C(c1ccc(OCCN2CCCCC2)cc1)c1c(-c2ccc(O)cc2)sc2cc(O)ccc12 [Raloxifene hydrochloride]	− (less than 1.5-fold)	2.17 fold	
Clc1cc(Cl)c(OCC#CI)cc1Cl [Haloprogin]	+ (more than 1.9-fold)	3.48 fold	
Meclocycline sulfosalicylate	− (less than 1.5-fold)	2.59 fold	Optimal conc. (Reck gene promoter [2]): 0.0617 µM
CCOC(=O)NC1=C(N2CC2)C(=O)C(NC(=O)OCC)=C(N2CC2)C1=O [Diaziquone]	± (between 1.9 and 1.5-fold)	3.54 fold	
CC1=CC(=O)c2ccccc2C1=O [Menadione]	+ (more than 1.9-fold)	3.21 fold	
COc1cccc2c1C(=O)c1c(O)c3c(c(O)c1C2=O)C[C@@](O)(C(C)=O)C[C@@H]3O[C@H]1C[C@H](N)[C@H](O)[C@H](C)O1 [Daunorubicin hydrochloride]	+ (more than 1.9-fold)	6.22 fold	
O=C1c2c(O)ccc(O)c2C(=O)c2c(NCCNCCO)ccc(NCCNCCO)c21 [Mitoxantrone dihydrochloride]	+ (more than 1.9-fold)	3.60 fold	
CC[C@H]1CN2CCc3cc(OC)c(OC)cc3[C@@H]2C[C@@H]1C[C@H]1NCCc2cc(OC)c(OC)cc21 [Emetine dihydrochloride]	− (less than 1.5-fold)	3.79 fold	
CCN(CC)C(=S)SSC(=S)N(CC)CC [Disulfiram]	+ (more than 1.9-fold)	18.0 fold	
